Laboratory results taken from paper PMC4559079 (Journal of Hematology & Oncology, 2015).
Where “and” joins values, the source holds several entries; their conditions need not be identical. Identical values can stand only once. Entries after “also recorded” stand apart in the source; their conditions may differ. Like-named read-outs stand apart in the source and are kept apart here.

Legend:
[1] = Plasma PK of ixazomib given with lenalidomide–dexamethasone, phase 1 study in East Asian patients with RRMM (LC/MS/MS, non-compartmental analysis); type: in vivo, human; conditions: for Accumulation ratio: day 15 AUC0–168/day 1 AUC0–168; for DN AUC0–168 / DN C max: dose-normalized; for Tmax / half-life / Cmax / AUC(0-t): human, plasma; for AUC(0-t): read-out: AUC0–168
Experimental: Plasma PK parameters were calculated for patients in the safety population following administration of ixazomib on cycle 1 day 1 and/or cycle 1 day 15 provided sufficient concentration–time data were available, the patient had received the protocol-specified ixazomib dosing regimen during cycle 1, and no excluded concomitant medications were received during the PK sampling period. PK parameters were estimated using non-compartmental analysis methods from the ixazomib concentration versus time data. The analyses were performed using Phoenix WinNonlin version 6.2 (Pharsight, Princeton, NJ). PK parameters were summarized, as appropriate, using descriptive statistics. DN AUC data in East Asian patients were compared with data for Western patients, pooled from three phase 1/2 trials of patients with RRMM (NCT00963820), NDMM (NCT01217957), and relapsed/refractory AL amyloidosis (NCT01318902).

[2] = parameters: method as in PMID 24904120, PMID 25456369; conditions: Western patients, pooled from three studies, single agent or with lenalidomide–dexamethasone, cited from earlier work
[3] = parameters: method as in PMID 25377318; conditions: Western patients, cited from earlier work
[4] = ixazomib with lenalidomide and dexamethasone; Western patients with NDMM; cited from earlier work
[5] = cycle 1 day 1, Chinese, geometric mean (% CV)
[6] = cycle 1 day 1, Korean, geometric mean (% CV)
[7] = cycle 1 day 1, Other, geometric mean (% CV)
[8] = cycle 1 day 15, Chinese, geometric mean (% CV)
[9] = cycle 1 day 15, Korean, geometric mean (% CV)
[10] = cycle 1 day 15, Other, geometric mean (% CV)
[11] = po, cycle 1 day 1, Chinese, geometric mean (% CV), 4.0 mg oral + lenalidomide–dexamethasone
[12] = po, cycle 1 day 1, Korean, geometric mean (% CV), 4.0 mg oral + lenalidomide–dexamethasone
[13] = po, cycle 1 day 1, Other, geometric mean (% CV), 4.0 mg oral + lenalidomide–dexamethasone
[14] = po, cycle 1 day 1, Overall, geometric mean (% CV), 4.0 mg oral + lenalidomide–dexamethasone
[15] = po, cycle 1 day 15, Chinese, geometric mean (% CV), 4.0 mg oral + lenalidomide–dexamethasone
[16] = po, cycle 1 day 15, Korean, geometric mean (% CV), 4.0 mg oral + lenalidomide–dexamethasone
[17] = po, cycle 1 day 15, Other, geometric mean (% CV), 4.0 mg oral + lenalidomide–dexamethasone
[18] = po, cycle 1 day 15, Overall, geometric mean (% CV), 4.0 mg oral + lenalidomide–dexamethasone

CC(C)C[C@H](NC(=O)CNC(=O)c1cc(Cl)ccc1Cl)B(O)O [ixazomib]
difference in geometric mean DN AUC0–168, East Asian vs Western patients (higher) ([1]; day 1 of dosing, 194 vs 152 ng*h/mL/mg): 28% | difference in geometric mean DN AUC0–168, East Asian vs Western patients (higher) ([1]; day 15, 401 vs 269 ng*h/mL/mg): 49% | Accumulation ratio ([1]; Chinese, geometric mean (% CV)): 2.38 (30) | Accumulation ratio ([1]; Korean, geometric mean (% CV)): 2.34 (40) | Accumulation ratio ([1]; Other, geometric mean (% CV)): 2.56 (33) | DN AUC0–168 [1, 5]: 233 (83) h*ng/mL/mg | DN C max [1, 5]: 12.6 (102) ng/mL/mg | DN AUC0–168 [1, 6]: 157 (47) h*ng/mL/mg | DN C max [1, 6]: 5.53 (99) ng/mL/mg | DN AUC0–168 [1, 7]: 180 (63) h*ng/mL/mg | DN C max [1, 7]: 8.93 (118) ng/mL/mg | DN AUC0–168 ([1]; cycle 1 day 1, Overall East Asian, geometric mean (% CV)): 194 [78 % CV] h*ng/mL/mg and 194 (78) h*ng/mL/mg | DN C max ([1]; cycle 1 day 1, Overall, geometric mean (% CV)): 8.45 (115) ng/mL/mg | DN AUC0–168 [1, 8]: 438 (39) h*ng/mL/mg | DN C max [1, 8]: 12.6 (71) ng/mL/mg | DN AUC0–168 [1, 9]: 362 (49) h*ng/mL/mg | DN C max [1, 9]: 9.51 (67) ng/mL/mg | DN AUC0–168 [1, 10]: 383 (81) h*ng/mL/mg | DN C max [1, 10]: 10.6 (97) ng/mL/mg | DN AUC0–168 ([1]; cycle 1 day 15, Overall East Asian, geometric mean (% CV)): 401 [48 % CV] h*ng/mL/mg and 401 (48) h*ng/mL/mg | DN C max ([1]; cycle 1 day 15, Overall, geometric mean (% CV)): 11.0 (72) ng/mL/mg | Tmax ([1]; oral, days 1 and 15 of cycle 1, East Asian patients, with lenalidomide–dexamethasone, read-out: median time to maximum plasma concentration): 1.5 to 2 h | half-life ([1]; oral, geometric mean, after multiple dosing, overall East Asian patients, read-out: terminal half-life (converted)): 146 h | half-life ([1]; oral, terminal disposition phase, cycle 1 day 15, Chinese, geometric mean (% CV), read-out: t1/2 (converted)): 148 h | half-life ([1]; oral, terminal disposition phase, cycle 1 day 15, Korean, geometric mean (% CV), read-out: t1/2 (converted)): 145 h | half-life ([1]; oral, terminal disposition phase, cycle 1 day 15, Other, geometric mean (% CV), read-out: t1/2 (converted)): 148 h | half-life ([1]; oral, terminal disposition phase, cycle 1 day 15, Overall, geometric mean (% CV), read-out: t1/2 (converted)): 147 h | Cmax [1, 11]: 0.0506 µg/mL | AUC(0-t) [1, 11]: 0.933 µg·h/mL | Tmax ([1]; po, cycle 1 day 1, Chinese, median (range), 4.0 mg oral + lenalidomide–dexamethasone, read-out: T max): 1.04 h | Cmax [1, 12]: 0.0221 µg/mL | AUC(0-t) [1, 12]: 0.63 µg·h/mL | Tmax ([1]; po, cycle 1 day 1, Korean, median (range), 4.0 mg oral + lenalidomide–dexamethasone, read-out: T max): 1.95 h | Cmax [1, 13]: 0.0357 µg/mL | AUC(0-t) [1, 13]: 0.72 µg·h/mL | Tmax ([1]; po, cycle 1 day 1, Other, median (range), 4.0 mg oral + lenalidomide–dexamethasone, read-out: T max): 1.75 h | Cmax [1, 14]: 0.0338 µg/mL | AUC(0-t) [1, 14]: 0.776 µg·h/mL | Tmax ([1]; po, cycle 1 day 1, Overall, median (range), 4.0 mg oral + lenalidomide–dexamethasone, read-out: T max): 1.5 h | Cmax [1, 15]: 0.0503 µg/mL | AUC(0-t) [1, 15]: 1.75 µg·h/mL | Tmax ([1]; po, cycle 1 day 15, Chinese, median (range), 4.0 mg oral + lenalidomide–dexamethasone, read-out: T max): 2 h | Cmax [1, 16]: 0.038 µg/mL | AUC(0-t) [1, 16]: 1.45 µg·h/mL | Tmax ([1]; po, cycle 1 day 15, Korean, median (range), 4.0 mg oral + lenalidomide–dexamethasone, read-out: T max): 2 h | Cmax [1, 17]: 0.0424 µg/mL | AUC(0-t) [1, 17]: 1.53 µg·h/mL | Tmax ([1]; po, cycle 1 day 15, Other, median (range), 4.0 mg oral + lenalidomide–dexamethasone, read-out: T max): 1.25 h | Cmax [1, 18]: 0.0439 µg/mL | AUC(0-t) [1, 18]: 1.61 µg·h/mL | Tmax ([1]; po, cycle 1 day 15, Overall, median (range), 4.0 mg oral + lenalidomide–dexamethasone, read-out: T max): 2 h | DLT-evaluable patients experiencing DLTs (cycle 1, 4.0 mg ixazomib with lenalidomide–dexamethasone): 2 of 24 | dose-limiting toxicities in the first six patients (starting dose 4.0 mg ixazomib, cycle 1, with lenalidomide–dexamethasone): No dose-limiting toxicities; also recorded: no DLTs | recommended phase 2/3 dose (RP2/3D) (weekly oral ixazomib with lenalidomide–dexamethasone, East Asian patients with RRMM): 4.0 mg | geometric mean DN AUC0–168 ([2]; day 1 of dosing): 152 [95 % CV] ng*h/mL/mg | geometric mean DN AUC0–168 ([2]; day 15): 269 [44 % CV] ng*h/mL/mg | MTD [3]: 2.97 mg/m^2 | MTD, equated to fixed dose ([3]; equates to 2.97 mg/m^2): 5.5 mg | recommended phase 2/3 dose (RP2/3D) [4]: 4.0 mg
